Test results: patent US20110151485A1, “METHOD FOR SCREENING FOR ANTIANGIOGENIC AGENT, AND METHOD FOR SCREENING FOR ANTIANGIOGENIC SIGNAL GENE” (National University Corporation Tokyo Medical and Dental …, priority 2008, published 2011)

Assays:
Assay type in all cases: cell-based
Flt gene = experiment: real-time quantitative RT-PCR, Flt gene, human umbilical vein endothelial cells; details: 4 to 8 hours
Description: (§2) Human umbilical vein endothelial cells cultured in HamF12K medium were treated with 40 μg/ml rifampicin or 1.0×10^−8 M endostatin, and maintained at 37° C. for 4 to 8 hours. […] After establishing the quantification condition, the amount of mRNA for these genes were quantified. […] Human umbilical vein endothelial cells cultured in HamF12K medium were treated with 20 μM salubrinal, and maintained at 37° C. for 4 to 8 hours. Subsequently, total cell extracts were subjected to real-time quantitative RT-PCR using TaqMan probe for ID1 gene, ID3 gene, integrinαv gene, Flt gene and Ephrin A1 gene, respectively. After establishing the quantification condition, the amount of mRNA for these genes were quantified.

PKR [1] = experiment: western blotting with phospho-specific anti-PKR antibody, human retina vessel endothelial cells (hREC); details: 40 μg/ml rifampicin or 1.0×10^−9 M endostatin, 10 to 240 minutes
Description: (§1) Human retina vessel endothelial cells (hREC) or human umbilical vein endothelial cells (hUVEC) cultured in HamF12K medium supplemented with 10% bovine fetal serum and growth factors were treated with either 40 μg/ml rifampicin or 1.0×10^−9 M endostatin, and maintained at 37° C. for 10 to 240 minutes. Total cell extracts from the maintained cells were then subjected to western blotting using phospho-specific anti-PKR antibody to examine the time course of PKR phosphorylation.

PKR [2] = experiment: western blotting with phospho-specific anti-PKR antibody, aorta endothelial cells (rAEC); details: rat aorta derived primary endothelial cells, 4 or 8 hours
Description: Similarly, […] aorta endothelial cells (rAEC) were treated respectively with salubrinal (20 μM), rifampicin (40 μg/ml), or endostatin (1.0×10^−9 M); PKR inhibitor A (2-aminopurine, 10 mM) followed by endostatin (1.0×10^−9 M); PKR inhibitor B (8-(imidazole-4-ylmethylene)-6H-azolidino [5,4-g]benzodiazole-7-one, 0.3 μM) followed by rifampicin (40 μg/ml); and PKR inhibitor B (same as above, 0.3 μM) followed by endostatin (1.0×10^−9 M); and maintained at 37° C. for 4 or 8 hours. Total cell extracts from respective samples were subjected to western blotting analysis using phospho-specific anti-PKR antibody to determine the extent of PKR phosphorylation.

ID3 gene = experiment: real-time quantitative RT-PCR, ID3 gene, human umbilical vein endothelial cells; details: 4 to 8 hours
Description: as §2

ID1 gene = experiment: real-time quantitative RT-PCR, ID1 gene, human umbilical vein endothelial cells; details: 4 to 8 hours
Description: as §2

integrinαv gene = experiment: real-time quantitative RT-PCR, integrinαv gene, human umbilical vein endothelial cells; details: 4 to 8 hours
Description: as §2

Ephrin A1 gene = experiment: real-time quantitative RT-PCR, Ephrin A1 gene, human umbilical vein endothelial cells; details: 4 to 8 hours
Description: as §2

PKR mRNA = experiment: real-time quantitative RT-PCR, PKR mRNA, human umbilical vein endothelial cells; details: 40 μg/ml rifampicin or 1.0×10^−8 M endostatin, 4 to 8 hours
Description: Human umbilical vein endothelial cells cultured in HamF12K medium were treated with 40 μg/ml rifampicin or 1.0×10^−8 M endostatin, and maintained at 37° C. for 4 to 8 hours. Subsequently, total cell extracts were subjected to real-time quantitative RT-PCR using TaqMan probe for PKR mRNA, and the amount of PKR mRNA was quantified. Similar processes were repeated for human umbilical vein endothelial cell samples that were transfected with PKR siRNA prior to rifampicin or endostatin treatment.

PKR [3] = experiment: fluorescent antibody staining with phospho-specific anti-PKR antibody, human umbilical vein endothelial cells
Description: Human umbilical endothelial cells cultured in HamF12K were treated with 40 μg/ml of rifampicin or 1.0×10^−9 M of endostatin, and maintained at 37° C. for 30 minutes. Cells were then stained using phospho-specific anti-PKR antibody as the primary antibody, and the presence of phosphorylated PKR was examined in the cells.
Similar experiments were also performed in human umbilical vein endothelial cells pre-treated with structural analog of PKR inhibitor (PKR negative) and then treated with 40 μg/ml rifampicin, as well as in human umbilical vein endothelial cells pre-treated with PKR inhibitor B (8-(imidazole-4-ylmethylene)-6H-azolidino [5,4-g]benzodiazole-7-one, 0.3 μM) and then treated with 40 μg/ml rifampicin or 1.0×10^−9 M endostatin, respectively.

PKR [4] = experiment: western blotting with phospho-specific anti-PKR antibody, human umbilical vein endothelial cells (hUVEC); details: 40 μg/ml rifampicin or 1.0×10^−9 M endostatin, 10 to 240 minutes
Description: as §1

[5] = hUVEC transfected with PKR siRNA prior to 40 μg/ml rifampicin or 1.0×10^−8 M endostatin
[6] = hUVEC, 40 μg/ml rifampicin or 1.0×10^−8 M endostatin

endostatin
decrease of expression of Flt gene in PKR siRNA treated samples (Flt gene; [5]): did not occur
expression level of Flt gene (Flt gene; [6]): decreased
phosphorylation of PKR (PKR [1]): enhanced
phosphorylation of PKR in cells pre-treated with specific PKR inhibitor (PKR [2]; PKR inhibitor B 0.3 μM followed by rifampicin 40 μg/ml or endostatin 1.0×10^−9 M): did not induce PKR phosphorylation
phosphorylation of PKR (PKR [2]; rifampicin 40 μg/ml or endostatin 1.0×10^−9 M): induced phosphorylation of PKR
decrease of expression of ID3 gene in PKR siRNA treated samples (ID3 gene; [5]): did not occur
expression level of ID3 gene (ID3 gene; [6]): decreased
decrease of expression of ID1 gene in PKR siRNA treated samples (ID1 gene; [5]): did not occur
expression level of ID1 gene (ID1 gene; [6]): decreased
decrease of expression of integrinαv gene in PKR siRNA treated samples (integrinαv gene; [5]): did not occur
expression level of integrinαv gene (integrinαv gene; [6]): decreased
decrease of expression of Ephrin A1 gene in PKR siRNA treated samples (Ephrin A1 gene; [5]): did not occur
expression level of Ephrin A1 gene (Ephrin A1 gene; [6]): decreased
PKR expression (PKR mRNA) (PKR mRNA): increased
PKR phosphorylation in the cell (fluorescent antibody) (PKR [3]; 40 μg/ml rifampicin or 1.0×10^−9 M endostatin, 30 minutes): induced enhancement of PKR phosphorylation
PKR phosphorylation in cells pre-treated with specific PKR inhibitor (fluorescent antibody) (PKR [3]; PKR inhibitor B 0.3 μM, then 40 μg/ml rifampicin or 1.0×10^−9 M endostatin): did not occur
phosphorylation of PKR (PKR [4]): enhanced

O=C1Nc2ccc3ncsc3c2C1=Cc1cnc[nH]1 [PKR inhibitor B, reference compound]
effect of PKR inhibitor pre-treatment on rifampicin or endostatin induced PKR phosphorylation (PKR [2]; inhibitor 0.3 μM): did not induce PKR phosphorylation
effect of PKR inhibitor pre-treatment on PKR phosphorylation after rifampicin or endostatin treatment (fluorescent antibody) (PKR [3]; inhibitor 0.3 μM): did not occur

O=C(/C=C/c1ccccc1)NC(NC(=S)Nc1cccc2cccnc12)C(Cl)(Cl)Cl (stereo not drawn) [salubrinal, reference compound]
expression level of mRNA for Flt gene (Flt gene; hUVEC, 20 μM salubrinal): decrease
expression level of mRNA for ID3 gene (ID3 gene; hUVEC, 20 μM salubrinal): decrease
expression level of mRNA for ID1 gene (ID1 gene; hUVEC, 20 μM salubrinal): decrease
expression level of mRNA for integrinαv gene (integrinαv gene; hUVEC, 20 μM salubrinal): decrease
expression level of mRNA for Ephrin A1 gene (Ephrin A1 gene; hUVEC, 20 μM salubrinal): decrease
